Laboratory results reported in US6286513A, “Methods for treating superficial bladder carcinoma” (priority 1998, dated 2001).
“Also recorded” adds a separate entry of the source.

Assays:
[1] = system: Ta, T1 or Tis bladder tumors; test: Clinical trial of adjuvant intravesical MMC after transurethral resection: recurrence in Ta, T1 or Tis bladder tumor patients (Example 1, Table 2, FIG. 1); format: in vivo; settings: for median time to recurrence: all patients (Ta, T1, Tis); for percentage of patients projected to be tumor recurrence-free at the end of 5 years: all patients, Kaplan-Meier projection
Procedure: One hundred and eight patients with histologically proven primary or recurrent transitional cell carcinoma of grade I to grade III and of stage Ta, T1 or Tis who had their tumors completely resected received the high efficacy therapy within 4 weeks after surgery.
The high efficacy therapy was administered once weekly for a total of six treatments. The MMC dosing solution was made by adding 40 mg of MMC to a vial containing 20 ml of sterile water.
To reduce urine production in the patients during treatment with the MMC dosing solution, the patients were instructed to refrain from fluids for 8 hours prior to and during treatment with the MMC dosing solution. To maintain the pH levels of the urine produced during treatment with the MMC dosing solution, the patients were given 1.3 grams of sodium bicarbonate the night prior to treatment, upon rising on the morning of treatment and 30 minutes prior to treatment. Then a Foley catheter was placed in the bladder of the patients and the bladder was drained by gravity. This was accomplished by holding the catheter end below the level of the bladder. The post void residual urine volume was determined using a bladder ultrasound machine. Drainage of the bladder was repeated until the residual urine volume was less than 10 ml. Drainage was aided by having the patient sit up or stand up, or reach forward while standing. Thereafter, 40 mg of MMC in 20 ml sterile water was instilled intravesically by gravity into the bladder of the patient and retained there for 2 hours. After the 2 hour therapy, bladder contents were drained from the patients and the volume and pH of the contents measured.
For purposes of comparison, 97 matching control patients from whom primary Ta, T1 or Tis bladder tumors had been completely resected were subjected to the customary experimental MMC intravesical therapy weekly for six weeks. These patients were not instructed to refrain from fluids for 8 hours prior to or during the customary experimental therapy. Prior to instillation of the 1 mg/ml MMC dosing solution, the patients were placed in the supine or dorsal lithotomy position and a Foley catheter inserted transurethrally into the bladder of the patients. The bladders were drained by gravity and the post void urine residual volume was measured. No attempts were made to further reduce the residual urine volume. Thereafter, 20 mg of MMC in 20 ml sterile water was instilled intravesically by gravity into the bladders of the patients and retained for 2 hours. After the 2 hour therapy, bladder contents were drained from the patients and the volume and pH of the contents measured.
Cytoscopy was performed on each surviving patient quarterly at three months for 2 years and then at 3 months or six months for the remaining 3 years to look for evidence of visible tumors. Urine cytology was performed on each surviving patient quarterly at three months for 2 years and then at 3 months or six months for the remaining 3 years to look for cells with aneuploid DNA contents. […] If necessary, i.e., if tumor recurrence was suspected, the follow-up included biopsy of the suspicious area and transurethral resection of the bladder tumor. Patients with proven recurrence were treated according to standards in the clinical community.
At each time period the number of patients who had developed histologically proven recurrent or progressive disease on biopsy or cytology was determined. The percentage of patients who remained tumor free at each time period after receiving the high efficacy therapy or the customary experimental therapy is shown in FIG. 1.
The Kaplan-Meier Curve is a conventional tool used to project treatment outcome such as the % of patients who remain alive or free of disease at a certain time interval. (Martin Bland, Introduction to Medical Statistics (1994) Oxford Press). The Kaplan Meier Curve was used to compare the customary experimental therapy to the high efficacy therapy. […]

[2] = system: high grade tumors (grade III); test: Recurrence in patients with high grade tumors (Example 6); format: in vivo
Procedure: Twenty-seven patients from whom high grade tumors (i.e., grade III)had been removed were treated weekly for six weeks with the high efficacy therapy as described above in example 1 and 23 patients from whom high grade tumors had been removed were treated weekly for six weeks with the customary experimental therapy as described in example 1. All patients were evaluated as described in example 1. The median time to recurrence was not reached for patients treated by the high efficacy treatment versus 179 days for patients treated by the customary experimental treatment. The projected 5-year recurrence free value is 52% for the patients receiving the high efficacy treatment and 19% for the customary experimental treatment.

T1 tumors = test: Recurrence in patients with T1 tumors (Kaplan-Meier); format: in vivo
Text: The Kaplan-Meier Curve is a conventional tool used to project treatment outcome such as the % of patients who remain alive or free of disease at a certain time interval. (Martin Bland, Introduction to Medical Statistics (1994) Oxford Press). The Kaplan Meier Curve was used to compare the customary experimental therapy to the high efficacy therapy. When compared to the customary experimental therapy, the high efficacy therapy increased the percentage of all patients who are projected to remain recurrence-freefor longer than 5 years from 20 to 41%. The improvement was similar for patients with T1 tumors which were growing in the deeper bladder tissue layers (i.e. increase from 16% to 44%) and for patients with Ta tumors which were growing in the urothelial surface of the bladder (i.e. increase from 20% to 37%).

[3] = Overall bladder wall exposure to MMC: urinary AUC, C^n×T, urine production and pH (Table 3); format: in vivo, patients; settings: for Urinary AUC / Urinary C^n × T: mean ± standard deviation; for Urinary C^n × T: n = 1.24
Text: A commonly used measure of drug exposure for anticancer agent is the product of exposure concentration and duration, or AUC (area under the curve). […] The drug exposure in the urinary bladder can be determined from the drug concentration in the urine and can serve as a measure of exposure to the tumor tissue.

[4] = system: superficial bladder carcinomas; settings: customary experimental MMC, weekly, 1 mg/ml in 20-40 ml, six to eight weeks; cited from earlier work
[5] = in vitro, previous results; cited from earlier work
[6] = customary experimental MMC intravesical therapy
[7] = customary experimental treatment
[8] = high efficacy vs customary experimental therapy

SMILES: COC12C(COC(N)=O)C3=C(C(=O)C(C)=C(N)C3=O)N1CC1NC12 (centres unmarked) [MMC]
- median time to recurrence [1, 6]: 292 days
- percentage of patients projected to be tumor recurrence-free at the end of 5 years [1, 6]: 20%
- percentage of patients projected to remain tumor recurrence free for 5 years, vs customary therapy ([1]; high efficacy therapy, Ta, T1, Tis): more effective in enhancing the percentage or fraction of Ta, T1, Tis bladder tumor patients that are projected to remain tumor recurrence free for a period of 5 years
- rate of recurrence and time interval before tumor recurrence, vs customary therapy ([1]; high efficacy therapy, Ta, T1 or Tis): more effective at reducing the rate of recurrence and increasing the time interval before tumor recurrence is observed; also recorded: tumors recurred at a later time in patients receiving the high efficacy treatment
- median time to recurrence ([1]; high efficacy therapy): 754 days
- percentage of patients projected to be tumor recurrence-free at the end of 5 years ([1]; high efficacy therapy): 41%
- median time to recurrence [2, 7]: 179 days
- projected 5-year recurrence free value [2, 7]: 19%
- median time to recurrence ([2]; high efficacy treatment): not reached
- projected 5-year recurrence free value ([2]; high efficacy treatment): 52%
- percentage of patients projected to remain recurrence-free for longer than 5 years (T1 tumors; customary experimental therapy): 16%
- percentage of patients projected to remain recurrence-free for longer than 5 years (T1 tumors; high efficacy therapy): 44%
- Urinary AUC ([3]; customary experimental therapy): 24.2 ± 14.7 mg·min/mL
- Urinary C^n × T ([3]; customary experimental therapy): 97.2 ± 77.08 mg^n.min/ml
- Urinary AUC ([3]; high efficacy therapy): 57.6 ± 37.2 mg·min/mL
- Urinary C^n × T ([3]; high efficacy therapy): 291 ± 283 mg^n.min/ml
- average drug exposure measured as AUC, high efficacy relative to customary [3, 8]: 2 times
- average drug exposure measured as C^n×T, high efficacy relative to customary [3, 8]: 2.4 times
- additional patients without recurrent tumor at 1 year vs transurethral resection alone [4]: 1-13%
- relative importance of drug concentration and treatment duration [5]: the drug concentration is more important than treatment duration
